In ChEMBL document CHEMBL3611970, “Synthesis and evaluation of isatin-β-thiosemicarbazones as novel agents against antibiotic-resistant Gram-positive bacterial species” (2015):
≈ marks a conversion by molar mass, not a printed value.

Columns and labels:
Assay type in all cases: functional
[1] = test system: Staphylococcus aureus; assay: Antimicrobial activity against methicillin-resistant Staphylococcus aureus Chaoyang clinical isolate after 16 hrs by broth microdilution method
[2] = test system: Staphylococcus aureus; assay: Antimicrobial activity against Staphylococcus aureus ATCC 6538 after 16 hrs by broth microdilution method; conditions: ATCC 6538, 16 h
[3] = test system: Bacillus spizizenii; assay: Antimicrobial activity against Bacillus subtilis ATCC 6633 after 16 hrs by broth microdilution method; conditions: ATCC 6633, 16 h
[4] = test system: Enterococcus faecalis; assay: Antimicrobial activity against vancomycin-susceptible Enterococcus faecalis after 16 hrs by broth microdilution method
[5] = test system: Enterococcus faecalis; assay: Antimicrobial activity against Enterococcus faecalis VRE-309 after 16 hrs by broth microdilution method; conditions: VRE-309, 16 h
[6] = test system: Pseudomonas aeruginosa; assay: Antimicrobial activity against Pseudomonas aeruginosa PAO1 after 16 hrs by broth microdilution method; conditions: PAO1, 16 h
[7] = test system: Klebsiella pneumoniae; assay: Antimicrobial activity against Klebsiella pneumoniae KP-249 clinical isolate after 16 hrs by broth microdilution method; conditions: KP-249, 16 h
[8] = test system: Staphylococcus aureus; assay: Antimicrobial activity against methicillin-resistant Staphylococcus aureus 309-4 clinical isolate after 16 hrs by broth microdilution method; conditions: 309-4, 16 h
[9] = test system: Staphylococcus aureus; assay: Antimicrobial activity against methicillin-resistant Staphylococcus aureus 6281 clinical isolate after 16 hrs by broth microdilution method; conditions: Staphylococcus aureus, 6281, 16 h
[10] = test system: Staphylococcus aureus; assay: Antimicrobial activity against methicillin-resistant Staphylococcus aureus 309-8 clinical isolate after 16 hrs by broth microdilution method; conditions: 309-8, 16 h
[11] = test system: Staphylococcus aureus; assay: Antimicrobial activity against methicillin-resistant Staphylococcus aureus 6-42 clinical isolate after 16 hrs by broth microdilution method; conditions: 6-42, 16 h
[12] = test system: Staphylococcus aureus; assay: Antimicrobial activity against methicillin-resistant Staphylococcus aureus 8-21 clinical isolate after 16 hrs by broth microdilution method; conditions: 8-21, 16 h
[13] = test system: Staphylococcus aureus; assay: Antimicrobial activity against methicillin-resistant Staphylococcus aureus 309-3 clinical isolate after 16 hrs by broth microdilution method; conditions: 309-3, 16 h
[14] = test system: Staphylococcus aureus; assay: Antimicrobial activity against methicillin-resistant Staphylococcus aureus 309-1 clinical isolate after 16 hrs by broth microdilution method; conditions: 309-1, 16 h
[15] = test system: Staphylococcus aureus; assay: Antimicrobial activity against methicillin-resistant Staphylococcus aureus 309-7 clinical isolate after 16 hrs by broth microdilution method; conditions: 309-7, 16 h
[16] = test system: Staphylococcus aureus; assay: Antimicrobial activity against methicillin-resistant Staphylococcus aureus 8-24 clinical isolate after 16 hrs by broth microdilution method; conditions: 8-24, 16 h
[17] = test system: Staphylococcus aureus; assay: Antimicrobial activity against methicillin-resistant Staphylococcus aureus 309-6 clinical isolate after 16 hrs by broth microdilution method; conditions: 309-6, 16 h

O=C1Nc2c(Cl)cccc2/C1=N/NC(=S)Nc1ccccc1
MIC [1]: 0.78 µg/mL (≈ 2.36 µM)
MIC [2]: 1.56 µg/mL (≈ 4.72 µM)
MIC [3]: ≤ 0.78 µg/mL
MIC [4]: 6.25 µg/mL (≈ 18.9 µM)
MIC [5]: 3.12 µg/mL (≈ 9.43 µM)
MIC [6]: > 100 µg/mL
MIC [7]: > 100 µg/mL
MIC [8]: 1.56 µg/mL (≈ 4.72 µM)
MIC [9]: 1.56 µg/mL (≈ 4.72 µM)
MIC [10]: 1.56 µg/mL (≈ 4.72 µM)
MIC [11]: 3.12 µg/mL (≈ 9.43 µM)
MIC [12]: 3.12 µg/mL (≈ 9.43 µM)
MIC [13]: 6.25 µg/mL (≈ 18.9 µM)
MIC [14]: 6.25 µg/mL (≈ 18.9 µM)
MIC [15]: 0.78 µg/mL (≈ 2.36 µM)
MIC [16]: 1.56 µg/mL (≈ 4.72 µM)
MIC [17]: 6.25 µg/mL (≈ 18.9 µM)

O=C1Nc2c(Cl)cccc2/C1=N/NC(=S)Nc1ccc(Cl)cc1
MIC [1]: 0.39 µg/mL (≈ 1.07 µM)
MIC [2]: 1.56 µg/mL (≈ 4.27 µM)
MIC [3]: ≤ 0.78 µg/mL
MIC [4]: 3.12 µg/mL (≈ 8.54 µM)
MIC [5]: 1.56 µg/mL (≈ 4.27 µM)
MIC [6]: > 100 µg/mL
MIC [7]: > 100 µg/mL
MIC [8]: 0.78 µg/mL (≈ 2.14 µM)
MIC [9]: 1.56 µg/mL (≈ 4.27 µM)
MIC [10]: 1.56 µg/mL (≈ 4.27 µM)
MIC [11]: 0.78 µg/mL (≈ 2.14 µM)
MIC [12]: 0.78 µg/mL (≈ 2.14 µM)
MIC [13]: 1.56 µg/mL (≈ 4.27 µM)
MIC [14]: 0.78 µg/mL (≈ 2.14 µM)
MIC [15]: 0.78 µg/mL (≈ 2.14 µM)
MIC [16]: 1.56 µg/mL (≈ 4.27 µM)
MIC [17]: 1.56 µg/mL (≈ 4.27 µM)

Cc1ccc(NC(=S)N/N=C2\C(=O)Nc3c(Cl)cccc32)cc1
MIC [1]: 0.39 µg/mL (≈ 1.13 µM)
MIC [2]: 1.56 µg/mL (≈ 4.52 µM)
MIC [3]: ≤ 0.78 µg/mL
MIC [4]: 6.25 µg/mL (≈ 18.1 µM)
MIC [5]: 3.12 µg/mL (≈ 9.05 µM)
MIC [6]: > 100 µg/mL
MIC [7]: > 100 µg/mL
MIC [8]: 0.78 µg/mL (≈ 2.26 µM)
MIC [9]: 1.56 µg/mL (≈ 4.52 µM)
MIC [10]: 0.78 µg/mL (≈ 2.26 µM)
MIC [11]: 0.78 µg/mL (≈ 2.26 µM)
MIC [12]: 0.78 µg/mL (≈ 2.26 µM)
MIC [13]: 0.78 µg/mL (≈ 2.26 µM)
MIC [14]: 0.78 µg/mL (≈ 2.26 µM)
MIC [15]: 0.78 µg/mL (≈ 2.26 µM)
MIC [16]: 1.56 µg/mL (≈ 4.52 µM)
MIC [17]: 1.56 µg/mL (≈ 4.52 µM)

Cc1ccccc1NC(=S)N/N=C1\C(=O)Nc2c(Cl)cccc21
MIC [1]: 0.78 µg/mL (≈ 2.26 µM)
MIC [2]: 1.56 µg/mL (≈ 4.52 µM)
MIC [3]: ≤ 0.78 µg/mL
MIC [4]: 6.25 µg/mL (≈ 18.1 µM)
MIC [5]: 3.12 µg/mL (≈ 9.05 µM)
MIC [6]: > 100 µg/mL
MIC [7]: > 100 µg/mL
MIC [8]: 1.56 µg/mL (≈ 4.52 µM)
MIC [9]: 1.56 µg/mL (≈ 4.52 µM)
MIC [10]: 1.56 µg/mL (≈ 4.52 µM)
MIC [11]: 0.78 µg/mL (≈ 2.26 µM)
MIC [12]: 0.78 µg/mL (≈ 2.26 µM)
MIC [13]: 1.56 µg/mL (≈ 4.52 µM)
MIC [14]: 1.56 µg/mL (≈ 4.52 µM)
MIC [15]: 0.78 µg/mL (≈ 2.26 µM)
MIC [16]: 1.56 µg/mL (≈ 4.52 µM)
MIC [17]: 1.56 µg/mL (≈ 4.52 µM)

Cc1cccc(NC(=S)N/N=C2\C(=O)Nc3c(Cl)cccc32)c1
MIC [1]: 0.78 µg/mL (≈ 2.26 µM)
MIC [2]: 1.56 µg/mL (≈ 4.52 µM)
MIC [3]: ≤ 0.78 µg/mL
MIC [4]: 6.25 µg/mL (≈ 18.1 µM)
MIC [5]: 3.12 µg/mL (≈ 9.05 µM)
MIC [6]: > 100 µg/mL
MIC [7]: > 100 µg/mL
MIC [8]: 1.56 µg/mL (≈ 4.52 µM)
MIC [9]: 3.12 µg/mL (≈ 9.05 µM)
MIC [10]: 1.56 µg/mL (≈ 4.52 µM)
MIC [11]: 0.78 µg/mL (≈ 2.26 µM)
MIC [12]: 0.78 µg/mL (≈ 2.26 µM)
MIC [13]: 1.56 µg/mL (≈ 4.52 µM)
MIC [14]: 0.78 µg/mL (≈ 2.26 µM)
MIC [15]: 0.78 µg/mL (≈ 2.26 µM)
MIC [16]: 1.56 µg/mL (≈ 4.52 µM)
MIC [17]: 1.56 µg/mL (≈ 4.52 µM)

O=C1Nc2c(Br)cccc2/C1=N/NC(=S)Nc1ccc(F)cc1
MIC [1]: 0.39 µg/mL (≈ 0.992 µM)
MIC [2]: 1.56 µg/mL (≈ 3.97 µM)
MIC [3]: ≤ 0.78 µg/mL
MIC [4]: 3.12 µg/mL (≈ 7.93 µM)
MIC [5]: 1.56 µg/mL (≈ 3.97 µM)
MIC [6]: > 100 µg/mL
MIC [7]: > 100 µg/mL
MIC [8]: 0.78 µg/mL (≈ 1.98 µM)
MIC [9]: 1.56 µg/mL (≈ 3.97 µM)
MIC [10]: 0.78 µg/mL (≈ 1.98 µM)
MIC [11]: 0.78 µg/mL (≈ 1.98 µM)
MIC [12]: 0.78 µg/mL (≈ 1.98 µM)
MIC [13]: 0.78 µg/mL (≈ 1.98 µM)
MIC [14]: 0.78 µg/mL (≈ 1.98 µM)
MIC [15]: 0.39 µg/mL (≈ 0.992 µM)
MIC [16]: 1.56 µg/mL (≈ 3.97 µM)
MIC [17]: 1.56 µg/mL (≈ 3.97 µM)

O=C1Nc2c(Br)cccc2/C1=N/NC(=S)Nc1ccc(Cl)cc1
MIC [1]: 0.39 µg/mL (≈ 0.952 µM)
MIC [2]: 1.56 µg/mL (≈ 3.81 µM)
MIC [3]: ≤ 0.78 µg/mL
MIC [4]: 3.12 µg/mL (≈ 7.62 µM)
MIC [5]: 1.56 µg/mL (≈ 3.81 µM)
MIC [6]: > 100 µg/mL
MIC [7]: > 100 µg/mL
MIC [8]: 0.78 µg/mL (≈ 1.9 µM)
MIC [9]: 1.56 µg/mL (≈ 3.81 µM)
MIC [10]: 0.78 µg/mL (≈ 1.9 µM)
MIC [11]: 0.78 µg/mL (≈ 1.9 µM)
MIC [12]: 0.78 µg/mL (≈ 1.9 µM)
MIC [13]: 0.78 µg/mL (≈ 1.9 µM)
MIC [14]: 0.78 µg/mL (≈ 1.9 µM)
MIC [15]: 0.39 µg/mL (≈ 0.952 µM)
MIC [16]: 1.56 µg/mL (≈ 3.81 µM)
MIC [17]: 1.56 µg/mL (≈ 3.81 µM)

Cc1ccc(NC(=S)N/N=C2\C(=O)Nc3c(C)cccc32)cc1
MIC [1]: 1.56 µg/mL (≈ 4.81 µM)
MIC [2]: 3.12 µg/mL (≈ 9.62 µM)
MIC [3]: ≤ 0.78 µg/mL
MIC [4]: 6.25 µg/mL (≈ 19.3 µM)
MIC [5]: 3.12 µg/mL (≈ 9.62 µM)
MIC [6]: > 100 µg/mL
MIC [7]: > 100 µg/mL
MIC [8]: 1.56 µg/mL (≈ 4.81 µM)
MIC [9]: 3.12 µg/mL (≈ 9.62 µM)
MIC [10]: 1.56 µg/mL (≈ 4.81 µM)
MIC [11]: 1.56 µg/mL (≈ 4.81 µM)
MIC [12]: 3.12 µg/mL (≈ 9.62 µM)
MIC [13]: 3.12 µg/mL (≈ 9.62 µM)
MIC [14]: 3.12 µg/mL (≈ 9.62 µM)
MIC [15]: 1.56 µg/mL (≈ 4.81 µM)
MIC [16]: 3.12 µg/mL (≈ 9.62 µM)
MIC [17]: 3.12 µg/mL (≈ 9.62 µM)

Cc1cccc2c1NC(=O)/C2=N\NC(=S)Nc1ccc(Cl)cc1
MIC [1]: 0.78 µg/mL (≈ 2.26 µM)
MIC [2]: 1.56 µg/mL (≈ 4.52 µM)
MIC [3]: 1.56 µg/mL (≈ 4.52 µM)
MIC [4]: 3.12 µg/mL (≈ 9.05 µM)
MIC [5]: 1.56 µg/mL (≈ 4.52 µM)
MIC [6]: > 100 µg/mL
MIC [7]: > 100 µg/mL
MIC [8]: 1.56 µg/mL (≈ 4.52 µM)
MIC [9]: 3.12 µg/mL (≈ 9.05 µM)
MIC [10]: 1.56 µg/mL (≈ 4.52 µM)
MIC [11]: 1.56 µg/mL (≈ 4.52 µM)
MIC [12]: 1.56 µg/mL (≈ 4.52 µM)
MIC [13]: 3.12 µg/mL (≈ 9.05 µM)
MIC [14]: 1.56 µg/mL (≈ 4.52 µM)
MIC [15]: 1.56 µg/mL (≈ 4.52 µM)
MIC [16]: 1.56 µg/mL (≈ 4.52 µM)
MIC [17]: 3.12 µg/mL (≈ 9.05 µM)

Cc1cccc2c1NC(=O)/C2=N\NC(=S)Nc1ccc(F)cc1
MIC [1]: 0.78 µg/mL (≈ 2.38 µM)
MIC [2]: 1.56 µg/mL (≈ 4.75 µM)
MIC [3]: ≤ 0.78 µg/mL
MIC [4]: 3.12 µg/mL (≈ 9.5 µM)
MIC [5]: 1.56 µg/mL (≈ 4.75 µM)
MIC [6]: > 100 µg/mL
MIC [7]: > 100 µg/mL
MIC [8]: 1.56 µg/mL (≈ 4.75 µM)
MIC [9]: 3.12 µg/mL (≈ 9.5 µM)
MIC [10]: 1.56 µg/mL (≈ 4.75 µM)
MIC [11]: 1.56 µg/mL (≈ 4.75 µM)
MIC [12]: 1.56 µg/mL (≈ 4.75 µM)
MIC [13]: 1.56 µg/mL (≈ 4.75 µM)
MIC [14]: 1.56 µg/mL (≈ 4.75 µM)
MIC [15]: 0.78 µg/mL (≈ 2.38 µM)
MIC [16]: 1.56 µg/mL (≈ 4.75 µM)
MIC [17]: 1.56 µg/mL (≈ 4.75 µM)
